Laboratory results taken from PMC6749450, “Probing the Effects of Pyrimidine Functional Group Switches on Acyclic Fleximer Analogues for Antiviral Activity” (Molecules, 2019).

How the values were obtained:
Ebola virus (EBOV) = assay: microbe, parasite or virus in culture; format: cell-based, EBOV-Makona; conditions: for EC50: Zaire ebolavirus, Huh-7, 72 h, read-out: EC50: effective concentration showing 50% inhibition of virus-expressed ZsGreen fluorescence
coronaviruses = conditions: cited from earlier work
flaviviruses = conditions: ref unpublished results; cited from earlier work
filoviruses = conditions: cited from earlier work

SMILES | EC50 (Ebola virus (EBOV)) [µM] | other results
COc1ncncc1-c1cn(COCCOC(=O)C(C)C)cn1 [3-^iPrAc, 2-((4-(4-Methoxypyrimidin-5-yl)-1H-imidazol-1-yl)methoxy)ethyl isobutyrate] | 38.3 ± 28.2 | –
COc1nc(N)ncc1-c1cn(COCCOC(C)=O)cn1 [1-Ac] | > 100 | activity against EBOV (in words) (Ebola virus (EBOV)): not active against EBOV
CC(=O)OCCOCn1cnc(-c2cnc(N)nc2)c1 [4-Ac, 2-((4-(2-Aminopyrimidin-5-yl)-1H-imidazol-1-yl)methoxy)ethyl acetate] | 52.9 ± 28.2 | –
COc1ncncc1-c1cn(COCCOC(C)=O)cn1 [3-Ac, 2-((4-(4-Methoxypyrimidin-5-yl)-1H-imidazol-1-yl)methoxy)ethyl acetate] | 35.4 ± 20.4 | –
COc1ncc(-c2cn(COCCO)cn2)c(OC)n1 [compound 2] | 23.4 ± 20.3 | –
CC(C)C(=O)OCCOCn1cnc(-c2cnc(N)nc2)c1 [4-^iPrAc, 2-((4-(2-Aminopyrimidin-5-yl)-1H-imidazol-1-yl)methoxy)ethyl isobutyrate] | 54 ± 23.7 | –
CCC(=O)OCCOCn1cnc(-c2cnc(N)nc2OC)c1 [1-EtAc, 2-((4-(2-Amino-4-methoxypyrimidin-5-yl)-1H-imidazol-1-yl)methoxy)ethyl propionate] | 62.2 ± 19 | –
CC(=O)OCCOCn1cnc(-c2cncnc2N)c1 [5-Ac, 2-((4-(4-Aminopyrimidin-5-yl)-1H-imidazol-1-yl)methoxy)ethyl acetate] | > 100 | –
COc1nc(N)ncc1-c1cn(COCCOC(=O)C(C)C)cn1 [1-^iPrAc, 2-((4-(2-Amino-4-methoxypyrimidin-5-yl)-1H-imidazol-1-yl)methoxy)ethyl isobutyrate] | > 100 | –
COc1ncc(-c2cn(COCCOC(=O)C(C)C)cn2)c(OC)n1 [2-^iPrAc, 2-((4-(2,4-Dimethoxypyrimidin-5-yl)-1H-imidazol-1-yl)methoxy)ethyl isobutyrate] | 32 ± 9.12 | –
COc1ncc(-c2cn(COCCOC(C)=O)cn2)c(OC)n1 [2-Ac] | 16.3 ± 11.5 | –
CCC(=O)OCCOCn1cnc(-c2cncnc2OC)c1 [3-EtAc, 2-((4-(4-Methoxypyrimidin-5-yl)-1H-imidazol-1-yl)methoxy)ethyl propionate] | 51.9 ± 19.6 | –
CCC(=O)OCCOCn1cnc(-c2cnc(N)nc2)c1 [4-EtAc, 2-((4-(2-Aminopyrimidin-5-yl)-1H-imidazol-1-yl)methoxy)ethyl propionate] | > 100 | –
CC(C)(C)C(=O)OCCOCn1cnc(-c2cncnc2N)c1 [5-^tBuAc, 2-((4-(4-Aminopyrimidin-5-yl)-1H-imidazol-1-yl)methoxy)ethyl pivalate] | 72.3 ± 18.7 | –
COc1nc(N)ncc1-c1cn(COCCO)cn1 [compound 1] | 1.49 ± 0.98 | antiviral activity against coronaviruses (coronaviruses): low micromolar activity; antiviral activity against flaviviruses (flaviviruses): low micromolar activity; antiviral activity against filoviruses (filoviruses): low micromolar activity
CC(C)(C)C(=O)OCCOCn1cnc(-c2cnc(N)nc2)c1 [4-^tBuAc, 2-((4-(2-Aminopyrimidin-5-yl)-1H-imidazol-1-yl)methoxy)ethyl pivalate] | 34.4 ± 20 | –
COc1nc(N)ncc1-c1cn(COCCOC(=O)C(C)(C)C)cn1 [1-^tBuAc, 2-((4-(2-Amino-4-methoxypyrimidin-5-yl)-1H-imidazol-1-yl)methoxy)ethyl pivalate] | 7.21 ± 1.85 | –
CC(C)C(=O)OCCOCn1cnc(-c2cncnc2N)c1 [5-^iPrAc, 2-((4-(4-Aminopyrimidin-5-yl)-1H-imidazol-1-yl)methoxy)ethyl isobutyrate] | > 100 | –
COc1ncncc1-c1cn(COCCOC(=O)C(C)(C)C)cn1 [3-^tBuAc, 2-((4-(4-Methoxypyrimidin-5-yl)-1H-imidazol-1-yl)methoxy)ethyl pivalate] | 51.4 ± 10 | –
CCC(=O)OCCOCn1cnc(-c2cncnc2N)c1 [5-EtAc, 2-((4-(4-Aminopyrimidin-5-yl)-1H-imidazol-1-yl)methoxy)ethyl propionate] | > 100 | –
Nc1ncncc1-c1cn(COCCO)cn1 [compound 5, 2-((4-(4-Aminopyrimidin-5-yl)-1H-imidazol-1-yl)methoxy)ethan-1-ol] | > 100 | activity against EBOV (in words) (Ebola virus (EBOV)): did not display any activity against EBOV
Nc1ncc(-c2cn(COCCO)cn2)cn1 [compound 4, 2-((4-(2-Aminopyrimidin-5-yl)-1H-imidazol-1-yl)methoxy)ethan-1-ol] | > 100 | activity against EBOV (in words) (Ebola virus (EBOV)): did not display any activity against EBOV
CCC(=O)OCCOCn1cnc(-c2cnc(OC)nc2OC)c1 [2-EtAc, 2-((4-(2,4-Dimethoxypyrimidin-5-yl)-1H-imidazol-1-yl)methoxy)ethyl propionate] | > 100 | –
COc1ncc(-c2cn(COCCOC(=O)C(C)(C)C)cn2)c(OC)n1 [2-^tBuAc, 2-((4-(2,4-Dimethoxypyrimidin-5-yl)-1H-imidazol-1-yl)methoxy)ethyl pivalate] | 81.3 ± 10.2 | –
COc1ncncc1-c1cn(COCCO)cn1 [compound 3, 2-((4-(4-Methoxypyrimidin-5-yl)-1H-imidazol-1-yl)methoxy)ethan-1-ol] | 78.9 ± 17.1 | –
